This note sets out measurements from PubChem BioAssay (NCI).

Test systems include 786-0 renal; A549 NSCLC; ACHN renal; CAKI-1 renal; COLO 205 colon; DU-145 prostate; HCT-116 colon; HCT-15 colon; HOP-62 NSCLC; KM12 colon; MDA-N; MOLT-4 leukemia; SF-268 CNS; SF-539 CNS; SK-MEL-2 melanoma; SK-OV-3 ovarian; SW-620 colon; UACC-257 melanoma; UO-31 renal.
What all share (test): NCI tumour cell line growth inhibition, 48 h

SMILES strings stand for the structures. Where “and” joins values, the source holds several entries; their conditions need not be identical. Equal values may be shown once.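 Method: 48-hour compound exposure of cells in 96-well plates, five concentrations, linear interpolation of endpoints. TGI marks complete inhibition of growth.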

As to `COc1ccc(/C=C2\CC3C4CC=C5C[C@@H](O)CC[C@]5(C)C4CC[C@]3(C)C2=O)cc1OC` (some centres not stated), the TGI with 786-0 renal was > 100 µM; with A549 NSCLC, > 100 µM; in the assay on ACHN renal, > 100 µM; in the assay with CAKI-1 renal, > 100 µM; in the assay with COLO 205 colon, 47 µM; with DU-145 prostate, > 100 µM. In addition, the TGI in the assay with HCT-116 colon is > 100 µM; in the assay with HCT-15 colon it was > 100 µM; in the assay on HOP-62 NSCLC, > 100 µM; in the assay on KM12 colon it was > 100 µM; with MDA-N, > 100 µM; in the assay with MOLT-4 leukemia, 83.4 µM. The TGI with SF-268 CNS, with SF-539 CNS, in the assay on SK-MEL-2 melanoma, with SK-OV-3 ovarian, in the assay with SW-620 colon and with UACC-257 melanoma was > 100 µM each time. Also, in the assay with UO-31 renal, the TGI came to 90.3 µM.
As for `OCC(O)C(O)C(C=NNc1ncnc2ccc(Br)cc12)=NNc1ncnc2ccc(Br)cc12` (configuration not stated), the TGI was > 100 µM in the assay on 786-0 renal; 60.7 µM and > 100 µM with A549 NSCLC; 14.2 µM and > 100 µM in the assay with ACHN renal; > 100 µM with COLO 205 colon; 9.82 µM in the assay with DU-145 prostate; > 100 µM with HCT-116 colon. The TGI is 25 µM and > 100 µM with HOP-62 NSCLC; 69 µM and > 100 µM with KM12 colon; > 100 µM in the assay with MDA-N; 12.1 µM and > 100 µM with MOLT-4 leukemia; 25 µM and > 100 µM in the assay on SF-268 CNS; 33.7 µM and > 100 µM in the assay on SF-539 CNS. Also, the TGI with SK-MEL-2 melanoma is 12.1 µM and > 100 µM; in the assay with SK-OV-3 ovarian, > 100 µM; in the assay on SW-620 colon it was > 100 µM; with UACC-257 melanoma, > 100 µM; with UO-31 renal, 25.6 µM and > 100 µM.
`COc1cc(N(CCC#N)CCC#N)ccc1/C(N=Nc1cccc(C)c1)=N\NC(=O)c1ccc(C)cc1`: the TGI is > 100 µM in the assay on 786-0 renal; > 100 µM in the assay on A549 NSCLC; 63 µM in the assay on ACHN renal; > 100 µM with CAKI-1 renal; > 100 µM in the assay on COLO 205 colon; > 100 µM with DU-145 prostate. Also, the TGI with HCT-116 colon, in the assay on HCT-15 colon, in the assay on HOP-62 NSCLC, in the assay with KM12 colon, in the assay with MDA-N and in the assay with MOLT-4 leukemia was > 100 µM each time. Also, the TGI with SF-268 CNS, in the assay with SK-MEL-2 melanoma, in the assay on SK-OV-3 ovarian, in the assay with SW-620 colon, with UACC-257 melanoma and with UO-31 renal was > 100 µM throughout.
On to `COC(=O)C(=O)C(C(=O)C(=O)Nc1nc(=S)[nH][nH]1)c1nc2ccc([N+](=O)[O-])cc2[nH]c1=O` (configuration not stated), for which the TGI in the assay with 786-0 renal, in the assay on A549 NSCLC, in the assay on ACHN renal, in the assay on CAKI-1 renal, with HCT-116 colon and with HCT-15 colon was > 100 µM each time. In addition, the TGI in the assay with HOP-62 NSCLC, in the assay with KM12 colon, in the assay on MDA-N, in the assay with SF-268 CNS, in the assay with SF-539 CNS and in the assay on SK-MEL-2 melanoma was > 100 µM in each case. Besides, the TGI in the assay with SK-OV-3 ovarian, in the assay with SW-620 colon, with UACC-257 melanoma and in the assay with UO-31 renal was > 100 µM throughout.
`NC1=CN(Cc2ccccc2)C2=N/C(=C\c3ccco3)C(=O)N12`: the TGI in the assay on 786-0 renal, in the assay on A549 NSCLC, in the assay on ACHN renal, in the assay on CAKI-1 renal, with COLO 205 colon and in the assay on DU-145 prostate was > 100 µM each time. Also, the TGI in the assay with HCT-116 colon, in the assay on HCT-15 colon, in the assay on HOP-62 NSCLC, in the assay on KM12 colon, in the assay on MDA-N and in the assay on MOLT-4 leukemia was > 100 µM in each case. Also, the TGI in the assay with SF-268 CNS, with SF-539 CNS, in the assay on SK-MEL-2 melanoma, in the assay on SK-OV-3 ovarian, with SW-620 colon and with UACC-257 melanoma was > 100 µM in each case. Further, in the assay on UO-31 renal, the TGI was > 100 µM.
In the case of `CC(C)(C)OC(=O)CC(NC(=O)OC(C)(C)C)C(=O)Oc1ccc([N+](=O)[O-])cc1` (configuration not stated), the TGI in the assay on 786-0 renal, with A549 NSCLC, with ACHN renal, with CAKI-1 renal, with COLO 205 colon and in the assay on DU-145 prostate was > 100 µM throughout. The TGI with HCT-116 colon, in the assay on HCT-15 colon, in the assay on HOP-62 NSCLC, with KM12 colon, in the assay with MDA-N and in the assay on MOLT-4 leukemia was > 100 µM in each case. Also, the TGI in the assay on SF-268 CNS, in the assay with SF-539 CNS, in the assay on SK-MEL-2 melanoma, in the assay on SK-OV-3 ovarian, with SW-620 colon and with UACC-257 melanoma was > 100 µM each time. Moreover, the TGI in the assay with UO-31 renal was > 100 µM.
For the compound `NC(N)=N/N=C/c1c(-c2ccc(Cl)cc2)nc2n1CCS2`, the TGI with 786-0 renal stood at 17.1 µM; in the assay on A549 NSCLC, 22.2 µM; in the assay with ACHN renal it was 27 µM; in the assay on CAKI-1 renal it was 28 µM; with COLO 205 colon, 14.3 µM; in the assay on DU-145 prostate, 25.5 µM. For the same compound, the TGI came to 16.4 µM in the assay with HCT-116 colon; 28.8 µM in the assay on HCT-15 colon; 27.4 µM in the assay with HOP-62 NSCLC; 24.2 µM in the assay with KM12 colon; 23.3 µM with MDA-N; 17.3 µM in the assay with MOLT-4 leukemia. The TGI in the assay with SF-268 CNS is 25.3 µM; with SF-539 CNS, 25 µM; in the assay with SK-MEL-2 melanoma, 24.2 µM; in the assay on SK-OV-3 ovarian it was 27 µM; with SW-620 colon, 21 µM; in the assay on UACC-257 melanoma it was 28 µM. The TGI with UO-31 renal was found to be 25.5 µM.
